From patent US9956293B2, “Targeted therapeutics” (Madrigal Pharmaceuticals, Inc., priority 2014, dated 2018)

Tests used:
[1] = Tissue distribution of ganetespib in female CD-1 nu/nu mice bearing RERF human NSCLC xenografts; assay type: in vivo, mouse; conditions: 24 hr after 50 mg/kg IV
Description: Tissue distribution of ganetespib in female CD-1 nu/nu mice bearing RERF human NSCLC xenografts
To confirm the distribution of ganetespib in blood, livers, kidneys, brains, hearts, lungs and tumors after IV administration of ganetespib to female CD-1 nu/nu mice bearing RERF human NSCLC xenografts, and to examine metabolic profiles of ganetespib in plasma, red blood cells, and above tissues.
Animals: female CD-1 nu/nu mice bearing RERF human NSCLC xenografts (N=3/group)
Formulation: 10% DMSO, 18% Cremophor RH40, 3.6% dextrose solution (DRD)
Bleeding time points: 5 min, 6, 24 hr
Collected tissues: blood (plasma and red blood cells (RBC)), liver, kidneys, brain, heart, lung, tumor
Protein precipitation: 50 μL of 10 times diluted plasma or RBC+150 μL ACN (10 mM NH4OAc), vortexed and centrifuged at 10000 rpm for 8 min; 150 μL supernatant+150 μL water (10 mM NH4OAc)
Protein precipitation: 100 μL homogenized tissue (1:3 tissue: PBS buffer)+100 μL ACN (10 mM NH4OAc), vortexed and centrifuged at 10000 rpm for 8 min Bioanalysis

HER2 = HER2 degradation in BT-474 cells (Example 3, Western blot / in-cell imaging); assay type: cell-based, human; conditions: Homo sapiens, BT-474; read-out: IC50 of in vitro HER2 assays
Description: BT-474 cells are plated in the interior 60 wells of a 96 well black clear bottom plate (20,000 cells/well) in DMEM medium, with DMEM media in the surrounding 36 wells, and incubated at 37° C. with 5% CO2 overnight. On the second day, concentration response curve source plates are produced (10 point, 3-fold dilution of compounds in DMSO) followed by a 1:30 dilution in an intermediate dilution plate containing DMEM. Compound is transferred from the intermediate plate to the cell plate at a dilution of 1:10.
Cells are then fixed in 4% phosphate-buffered paraformaldehyde for 30 minutes at room temperature and then permeabilized by washing five times with 0.1% Triton X-100 in PBS for 5 minutes at room temperature on a shaker. […] Cells are washed 5 times with 0.1% Tween-20 in PBS for 5 minutes at room temperature on a shaker and imaged on a LI-COR Odyssey imaging station. The raw data is normalized to DRAQ5 and the HER2 EC50 is calculated using XLfit™.

[2] = system: MCF-7 breast cancer cells; test: Mouse xenograft efficacy in an MCF-7 breast cancer model; assay type: in vivo; conditions: 150 or 100 mg/kg/1×wk; FIG. 8
Description: Mouse Xenograft Efficacy Data in an MCF-7 Breast Cancer Model
MCF-7 breast cancer cells were purchased from ATCC. […] Fetal bovine serum was then added to the medium. The final concentration of fetal bovine serum was 10%. Cells were cultured at 37° C. and 5% CO2.
Mice that were not put on treatment were euthanized. Animals were sourced through CRL (Wilmington, Mass.).

[3] = mouse, in vivo
Description: (§1) Tissue Distribution Extraction Procedure for SDC-TRAP Tumor Samples
(§2) A 150 ng/mL solution of SDC-TRAP-0002 in methanol was prepared using an internal spiking solution (500 μg/mL SDC-TRAP-0002 in DMSO). Using the 10 mM stock solutions of the SDC-TRAP molecule and its Hsp90i binding moiety and effector moiety in DMSO, spiking solutions were prepared at 0.025, 0.05, 0.1, 0.5, 1, 5, 10, 50, 100, 250, and 500 μM in DMSO. 5 μL of each spiking solution was added to a 96-deep well plate.
(§3) Quality control standards were prepared from 5 μL of 0.1, 1, and 10 μM calibration standard spiking solution added in triplicate into 96-deep well plate and adding 50 μL of matrix (plasma or homogenized tumor).
(§4) To prepare test samples, test plasma was diluted as needed using blank plasma. Tumor samples were pulverized in liquid nitrogen, weighed, and homogenized in PBS at 5× volume to sample weight. 50 μL of unknown plasma or homogenized tumor sample was mixed with 5 μL of DMSO. The samples were extracted by precipitating calibration standards, QC standards, and unknown samples with 200 μL of internal standard solution. The samples were mixed by vortex at room temperature for approximately 1.5 minutes, then centrifuge at 2-8° C. 150 μL of supernatant was collected and 25 μL of water added. Samples were mixed and analyzed by LC-MS/MS.
(§5) Samples of plasma, heart and tumor were excised from a euthanized mouse, homogenized in PBS at 5 times tissue weight and diluted in 5 μL DMSO/50 μL sample. Prior to analysis, 55 μL samples and calibration standards were precipitated in 200 μL methanol in 96-well plates. Samples were mixed on a vortex mixer for 1.5 minutes at 1500 rpm at room temperature, then centrifuged at 4400 rpm for 10 minutes at 8° C. 150 μL of each supernatant was transferred to a well of a new 96-well plate, and 25 μL of water was added and mixed with the sample. […] For the analysis of samples from female SCID mice, a gradient of solvent A (water/0.1% formic acid) and B (acetonitrile/0.1% formic acid) was used as in Table A below.

in vivo = conditions: mouse
Description: as §1, §2, §3, §4, §5

[4] = Mouse plasma stability (Examples 16-18); assay type: in vitro ADME
Description: Plasma Stability Protocol for SDC-TRAP Compounds
This solution was used to precipitate all plasma samples in the study. 200 μL was pipetted into a 96 deepwell plate over dry ice. 10 μL of 1 mM stock in DMSO was added to a 1.5 mL microfuge tube, then 990 μL of plasma. Samples were mixed by vortex, then 50 μL of each sample was added in triplicate to a 96-well plate containing internal standard solution. This was designated the 0 hour time point sample. 250 μL of the remaining plasma sample was added to each of four 96 deepwell plates—one per time point. Samples were incubated at 37° C. with gentle shaking for 0.25, 0.5, and 1 hour. After each time point, one plate of each sample was removed from the shaker and placed on wet ice for approximately 2 minutes. 50 μL plasma aliquots (in triplicate) were added to the deepwell plate containing internal standard solution. After the last time point was extracted, the 96 deepwell plate was vortexed, then centrifuged at 2-8° C. 150 μL of supernatant was collected and 25 μL of water was added. Samples were mixed and analyzed by LC-MS/MS.
The stability of seven SDC-TRAP types in mouse plasma was measured as follows. […] Each sample was mixed and divided into 250 μL aliquots, each representing time points 0, 15 minutes, 30 minutes or 1 hour. […]

[5] = Stability in cell culture media (Example 18); assay type: in vitro ADME
Description: SDC-TRAP Stability in Mouse Plasma and Cell Culture Media
Mouse plasma samples were prepared according to Example 16.

[6] = system: human breast cancer cell line BT-474; test: Cytotoxicity assay with cancer cell lines, BT-474 (Example 13); assay type: cell-based; conditions: BT-474, 72 h, read-out: Cytotoxicity (IC50, nM) BT-474
Description: (§6) Cytotoxicity Assay with Cancer Cell Lines
(§7) Cytotoxicity of SDC-TRAP molecules was determined in three cancer cell lines. […] 80 μL of CellTiter-Glo was added to each well, followed by room temperature incubation in the dark for 15 minutes. Cell was determined by luminescence. IC50 was calculated using XLfit™ software.

[7] = system: human urinary bladder cancer cell line RT-112; test: Cytotoxicity assay with cancer cell lines, RT-112 (Example 13); assay type: cell-based; conditions: RT-112, 72 h, read-out: Cytotoxicity (IC50, nM) RT-112
Description: as §6, §7

[8] = system: human urinary bladder cancer cell line SW780; test: Cytotoxicity assay with cancer cell lines, SW780 (Example 13); assay type: cell-based; conditions: SW780, 72 h, read-out: Cytotoxicity (IC50, nM) SW-780
Description: as §6, §7

[9] = Artificial membrane permeability assay (PAMPA) (Example 36); assay type: in vitro ADME
Description: In order to test the ability SDC-TRAP molecules of the invention to enter cells, an artificial membrane permeability assay (“PAMPA”) was used. […] LC/MS was used in conjunction with PAMPA assays to determine the ability of the SDC-TRAP molecules of the invention to permeate cells.
Pre-coated PAMPA plates were warmed to room temperature for at least 30 minutes prior to adding assay components.
Stock solutions were prepared with the SDC-TRAP molecules to be tested. In order to make a working solution, either 50 μL of 100 μM Stock in DMSO+950 μL of PBS or 50 μL of 200 μM stock was added to 96 deep well plate, resulting in a 5 μM final concentration or a 10 μM final concentration, respectively. 300 μL of the working solution containing each compound to be tested was added to the appropriate well of a donor PAMPA plate. 200 μL of PBS was added into the corresponding wells of an acceptor PAMPA plates.
The acceptor plate was lowered onto the donor plate and allowed to incubate for five hours. After five hours, a 50 μL aliquot was removed from each well of each plate and added into a new 96 deep-well plate.
100 μL of methanol containing an internal standard was added to each aliquot and analyzed by LC/MS. The internal standard was 150 ng/ml SDC-TRAP-0002.
In order to calculate the permeability for each SDC-TRAP molecule and the control molecules, the following formula was used:

Structure (SMILES)	Concentration of ganetespib in plasma [1]	IC50 (HER2) [nM]	tumor growth suppression (tumor volume) [2]	tumor targeting (tissue distribution, in words) [3]	concentration at 6 h (in vivo; Plasma Conc.) [nM]	concentration at 24 h (in vivo; Plasma Conc.) [nM]	Kp at 6 h (in vivo; Tumor/Plasma Ratio)	Kp at 24 h (in vivo; Tumor/Plasma Ratio)	Kp at […] (in vivo; Tumor/Plasma Ratio)	Mouse (10 μM) % Remaining 1 h (37° C.)* [4] [%]	Media (5 μM) % Remaining 1 h (37° C.)* ([5]; 1 h) [%]	Media (5 μM) % Remaining 19 h (37° C.) ([5]; 19 h) [%]	IC50 [6] [nM]	IC50 [7] [nM]	IC50 [8] [nM]	Mass Retention ([9]; incubation 5 h, the 55th table) [%]	Papp at 5 h ([9]; incubation 5 h, the 55th table) [×10⁻⁶ cm/s]	Mass Retention ([9]; same protocol, the 56th table) [%]	Papp at 5 h ([9]; same protocol, the 56th table) [×10⁻⁶ cm/s]	Kp at 1 h (in vivo; Tumor/Plasma Ratio)
CC(C)c1cc(-c2n[nH]c(=O)n2-c2ccc3c(ccn3C)c2)c(O)cc1O [ganetespib, reference compound]	<LLOQ	~30	–	–	–	–	–	–	–	–	–	–	–	–	–	–	–	–	–	–
CCc1c2c(nc3ccc(OC(=O)N4CCC(CCn5ccc6cc(-n7c(O)nnc7-c7cc(C(C)C)c(O)cc7O)ccc65)CC4)cc13)-c1cc3c(c(=O)n1C2)COC(=O)[C@]3(O)CC [SDC-TRAP-0063, 4,11-diethyl-4-hydroxy-3,14-dioxo-3,4,12,14-tetrahydro-1H-pyrano[3′,4′:6,7]indolizino[1,2-b]quinolin-9-yl 4-(2-(5-(3-(2,4-dihydroxy-5-isopropylphenyl)-5-hydroxy-4H-1,2,4-triazol-4-yl)-1H-indol-1-yl)ethyl)piperidine-1-carboxylate]	–	–	greater tumor growth suppression than effector moiety irinotecan alone	selectively targets and accumulates in tumor cells	1690	6.75	0.958	30.1	0.0122	–	–	–	–	–	–	–	–	–	–	–
CCc1c2c(cc3ccc(O)cc13)-c1cc3c(c(=O)n1C2)COC(=O)[C@]3(O)CC [SN-38]	–	–	–	–	–	–	–	–	0.01	64	82	52	> 10000	< 10	38	38.2	0.643	46.6	1.87	0.07
